Measured values taken from patent US20090281129A1, “CDKI PATHWAY INHIBITORS AND USES THEREOF” (Senex Biotechnology, Inc., priority 2006, published 2009).
Entries after “also recorded” stand apart in the source; their conditions may differ.

Experiments:
Assay type in all cases: cell-based
[1] = molecular target: T1, NFκB (p50 or p65 subunits) (Homo sapiens, UniProt P19838+Q04206); experiment: TransAM NFκB p65 / p50 Chemi transcription factor assay (oligonucleotide binding); conditions: for TNFα-induced NFκB activity: TNFα-treated cells; for basal NFκB activity: control cells
T1 construct: endogenous in cells
T1 sequence (P19838 1-433 limits assumed): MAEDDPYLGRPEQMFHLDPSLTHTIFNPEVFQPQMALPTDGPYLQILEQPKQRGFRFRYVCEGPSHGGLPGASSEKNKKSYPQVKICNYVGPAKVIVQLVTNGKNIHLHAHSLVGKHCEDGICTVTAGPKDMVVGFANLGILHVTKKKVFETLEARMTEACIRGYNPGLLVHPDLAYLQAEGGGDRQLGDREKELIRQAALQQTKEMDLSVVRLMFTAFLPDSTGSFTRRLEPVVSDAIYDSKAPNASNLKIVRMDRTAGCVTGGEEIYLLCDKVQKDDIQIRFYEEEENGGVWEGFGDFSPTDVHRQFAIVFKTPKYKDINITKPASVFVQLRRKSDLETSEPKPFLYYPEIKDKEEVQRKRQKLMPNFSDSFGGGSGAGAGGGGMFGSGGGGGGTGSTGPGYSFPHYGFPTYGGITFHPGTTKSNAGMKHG
T1 sequence (Q04206 whole entry): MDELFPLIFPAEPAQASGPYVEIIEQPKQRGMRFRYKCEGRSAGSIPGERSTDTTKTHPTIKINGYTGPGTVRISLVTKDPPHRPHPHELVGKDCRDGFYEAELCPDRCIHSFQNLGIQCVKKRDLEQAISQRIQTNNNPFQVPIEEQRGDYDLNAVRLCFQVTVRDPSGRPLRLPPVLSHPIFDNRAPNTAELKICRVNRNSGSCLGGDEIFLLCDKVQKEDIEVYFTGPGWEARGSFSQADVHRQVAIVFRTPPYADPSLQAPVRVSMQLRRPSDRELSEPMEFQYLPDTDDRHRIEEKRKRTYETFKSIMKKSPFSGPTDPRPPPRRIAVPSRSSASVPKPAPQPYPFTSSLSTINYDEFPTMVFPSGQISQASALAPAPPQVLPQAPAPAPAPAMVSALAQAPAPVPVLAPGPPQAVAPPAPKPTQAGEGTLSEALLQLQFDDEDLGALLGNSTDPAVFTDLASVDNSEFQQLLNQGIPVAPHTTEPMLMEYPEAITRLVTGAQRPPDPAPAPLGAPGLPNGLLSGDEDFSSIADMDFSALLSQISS
Description: The left set of bars represents cells treated with carrier control, the middle set represents cells treated with SNX2, and the right set represents cells treated with a known inhibitor of NFκB binding (TPCK).
We also tested if these compounds could act as the inhibitors of NFκB, by measuring cellular levels of p50 or p65 subunits binding oligonucleotides containing NFκB consensus binding site, using ACTIVE MOTIF TransAM™ NFκB p65 Chemi and NFκB p50 Chemi Transcription Factor Assay Kits.

HT1080 p27-2 cells = experiment: FACS cell cycle analysis in HT1080 p27-2 cells with IPTG-inducible p27; conditions: 20 μM compound, 24-hour treatment
Protocol: IPTG induces dose-dependent increase in the G1 fraction with a corresponding decrease in S and G2/M. The doses of IPTG used in this experiment induce G1 arrest at levels that are lower than the maximal levels that are produced by 50-100 μM IPTG, where >80% of cells are in G1.

[2] = tested on: normal human WI-38 fibroblasts; experiment: Doxorubicin-induced senescent phenotype (SA-β-gal) in WI-38 fibroblasts; conditions: senescence induced by 200 nM doxorubicin
Protocol: We have correlated the ability of SNX2-class compounds to inhibit the induction of CDKI-responsive genes with their effect on the senescent phenotype, induced in normal human WI-38 fibroblasts by treatment with 200 nM doxorubicin.

HT1080 p21-9 cells = experiment: FACS analysis of DNA content (cell cycle distribution) in HT1080 p21-9 cells; conditions: 18 hrs; for increase in the G1 fraction relative to cells treated with IPTG alone: 20 μM compound added simultaneously with 50 μM IPTG; for decrease in the G2 fraction of IPTG-treated cells: 20 μM compound with 50 μM IPTG; for increase in the G1 fraction: 20 μM compound, in the absence of IPTG
Protocol: We have analyzed the effect of SNX2-class compounds on cell cycle distribution of p21-arrested HT1080 p21-9 cells. Upon p21 induction, these cells are known to arrest both in G1 and in G2 (Chang et al., Oncogene 19, 2165-2170), which is illustrated in FIG. 9 by a reduction in the S-phase but not in the G1 or G2 fractions of cells treated with 50 μM IPTG for 18 hrs, relative to IPTG-untreated cells (as determined by FACS analysis of DNA content in DAPI-stained cells). 20 μM concentrations of SNX2 or SNX14 produce a small increase in the G1 fraction in the absence of IPTG (4% increase with SNX2 and 5% increase with SNX14) (FIG. 9). However, when SNX2 and SNX14 were added simultaneously with IPTG, they produced a much greater increase in the G1 fraction relative to cells treated with IPTG alone (19% increase with SNX2 and 22% increase with SNX14) (FIG. 9).

[3] = tested on: HT1080 p21-9 cells co-cultured with C8 mouse fibroblast line; experiment: Paracrine antiapoptotic activity of p21-expressing HT1080 p21-9 cells, survival of C8 cells in low-serum media; conditions: p21 induction for three days in presence of compound; C8 survival after 3 days in 0.5% serum, luciferase assay
Description: We have also tested if SNX2-class compounds can inhibit paracrine tumor-promoting activities of CDKI-expressing cells. In the assay shown in FIG. 12, HT1080 p21-9 cells were either untreated or treated with p21-inducing IPTG, alone or in the presence of three SNX2-class compounds (SNX2, SNX14 and SNX38). After three days, cells were trypsinized, washed to remove residual compounds, and 3×10^3 cell aliquots of each sample were mixed (in 6 replicates) with 10^4 cell aliquots of C8 mouse fibroblast line, which is highly susceptible to apoptosis in low-serum media. (To detect C8 cells in co-culture, we had transduced them with a vector expressing firefly luciferase.) The next day after plating the mixtures in 96-well plates (in 10% serum and in the absence of IPTG or compounds), cells were exposed to low-serum (0.5%) media, and the relative number of surviving C8 cells was measured after 3 days by the luciferase assay.

[4] = tested on: CDKI-responsive promoter of cellular NK4 gene; experiment: NK4-luciferase reporter in HT1080 p21-9 cells, prevention and reversal of p21-induced transcription; conditions: for induction of NK4-luciferase by p21 (reversal): compound added after two days of IPTG treatment; for induction of NK4-luciferase by p21: compound added simultaneously with IPTG
Protocol: The compounds show pronounced dose-dependent inhibition of transcription by p21, but they have only a marginal effect on the promoter function when p21 is not induced. […] In this experiment, HT1080 p21-9 cells that express firefly luciferase from a CDKI-responsive promoter of cellular NK4 gene were cultured with IPTG for two days, which is sufficient for near-maximal induction of NK4.

| Compound | TNFα-induced NFκB activity [1] | basal NFκB activity [1] | effect on sub-maximal G1 arrest induced by IPTG (p27) (HT1080 p27-2 cells) | expression of senescence marker SA-β-gal [2] | morphological changes associated with cell senescence [2] | increase in the G1 fraction relative to cells treated with IPTG alone (HT1080 p21-9 cells) | decrease in the G2 fraction of IPTG-treated cells (HT1080 p21-9 cells) | increase in the G1 fraction (HT1080 p21-9 cells) | p21-induced increase of C8 cell survival (paracrine antiapoptotic activity) [3] | induction of NK4-luciferase by p21 (reversal) [4] | induction of NK4-luciferase by p21 [4] | binding of NFκB proteins p50 or p65 to double-stranded DNA oligonucleotide comprising NFκB binding site ([1]; control or TNFα-treated cells) |
| --- | --- | --- | --- | --- | --- | --- | --- | --- | --- | --- | --- | --- |
| Cc1ccc(S(=O)(=O)N[C@@H](Cc2ccccc2)C(=O)CCl)cc1 [TPCK, reference compound] | completely blocks | completely blocks | – | – | – | – | – | – | – | – | – | – |
| CC(C)Nc1ncnc2ccc(I)cc12 [SNX14] | – | – | strongly augmented | block this phenotype | diminish | 22% | 7% | 5% | significantly diminished; also recorded: strongest effect | – | – | – |
| Cc1c(Cl)cccc1NC(=O)CCN1CCN(Cc2ccccc2)CC1 [SNX63] | – | – | – | – | – | – | – | – | – | not two days later | inhibited transcription | – |
| COCCCNc1ncnc2ccc(I)cc12 [SNX38] | – | – | – | – | – | – | – | – | significantly diminished | reverses; also recorded: strongly decreased | prevents; also recorded: strongly decreased | – |
| CCCNc1ncnc2ccc(Br)cc12 [SNX2] | no significant effect | no significant effect | – | block this phenotype | diminish | 19% | 6% | 4% | significantly diminished | – | – | does not inhibit |
